Test results reported in ChEMBL document CHEMBL3751793, “Preparation of N-Phenyl-lactam Derivatives Capable of Stimulating Neurogenesis and Their Use in the Treatment of Neurological Disorders” (2015).

System: NSC
Assay: Increase in cell proliferation of human NSC cells assessed as increase in ATP level after 4 days by CelltiterGlo assay
Format: functional

With COc1cc(N2CCC(c3cccc(Cl)c3)C2=O)ccc1-c1cn[nH]c1 (stereo not drawn) as the molecule, how does the EC150 read?
The EC150 was 65.9 nM.

COc1cccc(C2CCN(c3ccc(-c4cnco4)c(OC)c3)C2=O)c1 (stereo not drawn) was tested. Which EC150 did it give?
Its EC150 is 81.4 nM.

For COc1cccc(C2CCN(c3ccc(-c4cn[nH]c4)c(OC)c3)C2=O)c1 (stereo not drawn), which EC150 is on record?
Its EC150 is 29.9 nM.

Which EC150 does the source give for COc1cc(N2CCN(Cc3cccc(OC(F)(F)F)c3)C2=O)ccc1-c1cn[nH]c1 here?
Its EC150 is 9.2 nM.

How did the EC150 turn out when COc1cccc(C2CCN(c3ccc(-c4ccncc4)cc3)C2=O)c1 (stereo not drawn) was run?
The EC150 was 15.5 nM.

Which EC150 does the source give for COc1cc(N2CCN(Cc3ccccc3C(F)(F)F)C2=O)ccc1-c1ccncc1 here?
Its EC150 is 35.1 nM.

COc1cc(N2CCC(c3ccccc3)C2=O)ccc1-c1cn[nH]c1 (stereo not drawn) was tested. Which EC150 did it give?
Its EC150 is 41.4 nM.

How did the EC150 turn out when COc1cccc(CN2CCN(c3ccc(-c4cn[nH]c4)c(OC)c3)C2=O)c1 was run?
Its EC150 is 23.9 nM.

How did the EC150 turn out when COc1cccc(CN2CCN(c3ccc(-c4cn[nH]c4)c(F)c3)C2=O)c1 was run?
Its EC150 is 15.7 nM.

With COc1cc(N2CCN(Cc3cccc(F)c3)C2=O)ccc1-c1cn[nH]c1 as the molecule, how does the EC150 read?
Its EC150 is 47 nM.

Which EC150 does the source give for CCOc1cccc(CN2CCN(c3ccc(-c4cn[nH]c4)c(OC)c3)C2=O)c1 here?
The EC150 was 73.9 nM.

For COc1cc(N2CCN(Cc3cccc(C(F)(F)F)c3)C2=O)ccc1-c1cn[nH]c1, which EC150 is on record?
The EC150 was 8.6 nM.

COc1cc(N2CCN(Cc3cccc(C)c3)C2=O)ccc1-c1ccncc1 was tested. Which EC150 did it give?
The EC150 was 29.8 nM.

Which EC150 does the source give for COc1cc(N2CCN(Cc3ccncc3)C2=O)ccc1-c1cn[nH]c1 here?
The EC150 was 42 nM.

How did the EC150 turn out when COc1cccc(C2CCN(c3ccc(-c4ccncc4)c(OC)c3)C2=O)c1 (stereo not drawn) was run?
Its EC150 is 61.3 nM.

Which EC150 does the source give for COc1cccc(CN2CCN(c3ccc(-c4cn[nH]c4)cc3F)C2=O)c1 here?
Its EC150 is 41.6 nM.

O=C1C(c2ccc(F)cc2)CCN1c1ccc(-c2cn[nH]c2)cc1 (stereo not drawn) was tested. Which EC150 did it give?
Its EC150 is 41.7 nM.

COc1cc(N2CCC(c3cccc(F)c3)C2=O)ccc1-c1cn[nH]c1 (stereo not drawn) was tested. Which EC150 did it give?
The EC150 was 77.6 nM.
